Literature values in patent publication US20060046961A1, “Controlled and directed local delivery of anti-inflammatory compositions” (priority 2004, published 2006).

Tested on: PGE2 production
Details: cell culture

COc1ccc2cc(CC(=O)O)ccc2c1 [6-methoxy-2-napthylacetic acid]
PGE2 production: suppress
local inflammation: suppress
